From patent US20230078764A1 (Yumanity Therapeutics, Inc., priority 2019, published 2023)

What was measured:
human SCD1 = biological target: T1, human SCD1 (Homo sapiens, UniProt O00767); experiment: Growth inhibition of yeast strain expressing human SCD1 as sole desaturase (OLE1 deleted), OD600 readout; assay type: cell-based; settings: yeast strain expressing human SCD1 as sole desaturase; growth (OD600) after 40 h at 30° C.; read-out: SCD1 IC50
T1 construct: expressed in transfected cells; host or cells: yeast strain with OLE1 deleted, plasmid-borne human SCD1 (selected in SD-Ura)
T1 sequence (O00767 1-359): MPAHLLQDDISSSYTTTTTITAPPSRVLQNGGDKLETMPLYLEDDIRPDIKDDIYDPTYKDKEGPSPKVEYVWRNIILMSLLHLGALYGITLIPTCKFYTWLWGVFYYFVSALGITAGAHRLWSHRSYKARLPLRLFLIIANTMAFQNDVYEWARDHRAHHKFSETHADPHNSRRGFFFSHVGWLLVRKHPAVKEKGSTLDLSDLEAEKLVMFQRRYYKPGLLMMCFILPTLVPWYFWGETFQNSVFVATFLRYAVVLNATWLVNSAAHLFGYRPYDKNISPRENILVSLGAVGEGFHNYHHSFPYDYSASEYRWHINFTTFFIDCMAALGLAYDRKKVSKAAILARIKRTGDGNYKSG

human SCD5 = biological target: T2, human SCD5 (Homo sapiens, UniProt Q86SK9); experiment: Growth inhibition of yeast strain expressing human SCD5 as sole desaturase (OLE1 deleted), OD600 readout; assay type: cell-based; settings: yeast strain expressing human SCD5 as sole desaturase; growth (OD600) after 40 h at 30° C.; read-out: SCD5 IC50
T2 construct: expressed in transfected cells; host or cells: yeast strain with OLE1 deleted, plasmid-borne human SCD5 (selected in SD-Ura)
T2 sequence (Q86SK9 1-330): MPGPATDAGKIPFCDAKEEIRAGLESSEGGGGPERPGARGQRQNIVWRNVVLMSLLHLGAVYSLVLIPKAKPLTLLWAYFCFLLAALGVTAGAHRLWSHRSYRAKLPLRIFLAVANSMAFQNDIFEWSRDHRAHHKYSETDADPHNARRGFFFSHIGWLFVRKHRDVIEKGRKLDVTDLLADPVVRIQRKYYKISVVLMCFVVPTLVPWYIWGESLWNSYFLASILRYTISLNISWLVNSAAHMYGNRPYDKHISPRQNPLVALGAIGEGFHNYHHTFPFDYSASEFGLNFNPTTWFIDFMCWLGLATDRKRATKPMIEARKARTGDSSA

IC50 (human SCD1) [µM] | IC50 (human SCD5) [µM] | Compound
> 45 | 14.5 | Cn1nc(C(=O)Nc2ccc(CCOc3ccccc3)cn2)ccc1=O [Compound 362]
3.16 | 0.13 | Cn1nccc(NC(=O)c2ccc(Cc3cccc(Cl)c3)cn2)c1=O [Compound 363]
0.71 | 0.02 | COc1nccc(C(=O)Nc2ccc(Cc3cccc(F)c3)cn2)n1 [Compound 364]
25.8 | 4 | O=C(Nc1ccc(COc2ccc(F)c(Cl)c2)cn1)c1ccc(=O)n(C2CC2)c1 [Compound 365]
0.02 | 0.02 | O=C(Nc1ccc(Cc2cccc(Cl)c2)cn1)c1ccc(CCO)nc1 [Compound 366]
25.8 | 2.98 | Cn1nc(C(=O)Nc2ccc(Nc3cccc(Cl)c3)cn2)ccc1=O [Compound 367]
1.37 | 0.24 | CC(O)c1ccc(C(=O)Nc2ccc(Cc3cccc(Cl)c3)cn2)cn1 (centres unmarked) [Compound 368]
> 45 | 14 | Cn1nc(C(=O)NC2CCC(Oc3cccc(Cl)c3)CC2)ccc1=O (centres unmarked) [Compound 369]
> 45 | 6.65 | CN1N=C(C(=O)Nc2ccc(CC3CCCCC3)cn2)CCC1=O [Compound 370]
> 45 | 0.77 | O=C(Nc1ccc(Cc2cccc(F)c2)cn1)c1ccn(C(F)(F)F)n1 [Compound 372]
0.3 | 0.03 | CCn1cc(C(=O)Nc2ccc(Cc3cccc(Cl)c3)cn2)cn1 [Compound 373]
38.5 | 7.04 | CC(C)(O)c1ccc(C(=O)Nc2ccc(Cc3cccc(Cl)c3)cn2)cn1 [Compound 374]
0.01 | 0.01 | O=C(Nc1ccc(CC2CCCCC2)cn1)c1ccc(CO)nc1 [Compound 375]
> 45 | > 45 | O=C(Nc1ccc(Cc2cccc(F)c2)nn1)c1ccc(=O)n(CC2CC2)n1 [Compound 376]
> 45 | > 45 | CN1CC(C(=O)Nc2ncc(Cc3cccc(F)c3)s2)CC1=O (centres unmarked) [Compound 377]
> 45 | > 45 | CN1N=C(C(=O)Nc2nc(Cc3ccc(F)cc3)cs2)CCC1=O [Compound 378]
> 45 | > 45 | CCn1cc(C(=O)Nc2ccc(Cc3ccc(F)cc3)nn2)ccc1=O [Compound 379]
> 45 | > 45 | CN1N=C(C(=O)Nc2ncc(Cc3ccccc3C#N)s2)CCC1=O [Compound 380]
> 45 | > 45 | CN1N=C(C(=O)NCc2ccc(Cc3cccc(F)c3)cn2)CCC1=O [Compound 381]
> 45 | > 45 | CN1N=C(C(=O)Nc2ccnc(Cc3cccc(Cl)c3)c2)CCC1=O [Compound 382]
> 45 | > 45 | CC(C)c1ccc(Cc2ccc(NC(=O)C3=NN(C)C(=O)CC3)nc2)cc1 [Compound 383]

IC50 (human SCD1) [µM] | IC50 (human SCD5) [µM] | Compound
> 45 | > 45 | Cn1nc(C(=O)Nc2ccc(Cc3cc(F)cc(Cl)c3)nn2)ccc1=O [Compound 384]
> 45 | > 45 | CN1N=C(C(=O)Nc2ncc(COc3cccc(Cl)c3)s2)CCC1=O [Compound 385]
> 45 | > 45 | O=C(Nc1ncc(Cc2cccc(F)c2)s1)C1=NN(CCF)C(=O)CC1 [Compound 386]
> 45 | > 45 | COc1cc(Cc2cccc(Cl)c2)cnc1NC(=O)C1=NN(C)C(=O)CC1 [Compound 387]
17.6 | > 45 | CN1N=C(C(=O)Nc2cnc(Cc3cccc(F)c3)s2)CCC1=O [Compound 388]
> 45 | > 45 | Cn1nc(C(=O)Nc2ncc(Cc3cccc(C#N)c3)s2)ccc1=O [Compound 389]
> 45 | > 45 | CN1N=C(C(=O)Nc2ncc(Cc3ccc4ccccc4n3)s2)CCC1=O [Compound 390]
1.24 | > 45 | CS(=O)(=O)c1cccc(C(=O)Nc2ccc(Cc3cccc(F)c3)cn2)c1 [Compound 391]
> 45 | > 45 | CN1N=C(C(=O)Nc2ccc(Cc3ccc(C4CC4)nc3)cn2)CCC1=O [Compound 392]
> 45 | > 45 | O=C(Nc1ccc(Cc2cccc(Cl)c2)cn1)N1CCC2(CC1)COC2 [Compound 393]
> 45 | > 45 | CC(=O)Nc1ccc(/C=C/c2cccc(Cl)c2)nn1 [Compound 394]
> 45 | > 45 | CC(C)Cc1ccc(NC(=O)c2ccc(=O)n(C)n2)nn1 [Compound 395]
> 45 | > 45 | CN1N=C(C(=O)Nc2ccc(COC3(C)CC3)cn2)CCC1=O [Compound 396]
> 45 | > 45 | CN1N=C(CNc2ccc(Cc3cccc(F)c3)cn2)CCC1=O [Compound 397]
> 45 | > 45 | CN1N=C(C(=O)Nc2ncc(Cc3cccnc3)s2)CCC1=O [Compound 398]
> 45 | > 45 | CN1N=C(C(=O)Nc2ncc(Cc3cccc(F)c3)o2)CCC1=O [Compound 399]
> 45 | > 45 | CN1C(=O)CCC1C(=O)Nc1ncc(Cc2cccc(F)c2)s1 (centres unmarked) [Compound 400]
> 45 | > 45 | CN1N=C(C(=O)Nc2ccc(Cc3cccc(F)c3)nc2)CCC1=O [Compound 401]
> 45 | > 45 | Cc1cnc(Cc2ccc(NC(=O)C3=NN(C)C(=O)CC3)nc2)s1 [Compound 402]
> 45 | > 45 | CC(=O)C1CN(C(=O)Nc2ccc(Cc3cccc(Cl)c3)cn2)C1 [Compound 403]
> 45 | > 45 | COc1ccc(C(=O)Nc2ncc(Cc3cccc(F)c3)s2)nn1 [Compound 404]

IC50 (human SCD1) [µM] | IC50 (human SCD5) [µM] | Compound
> 45 | > 45 | CN1N=C(C(=O)Nc2cnn(Cc3cccc(Cl)c3)c2)CCC1=O [Compound 405]
> 45 | > 45 | CN1N=C(C(=O)Nc2nc(Cc3cccc(F)c3)cs2)CCC1=O [Compound 406]
> 45 | > 45 | CN1N=C(C(=O)Nc2nnc(Cc3cccc(Cl)c3)[nH]2)CCC1=O [Compound 407]
> 45 | > 45 | CN1N=C(C(=O)Nc2nc(Cc3cccc(F)c3)ns2)CCC1=O [Compound 408]
> 45 | > 45 | CN1N=C(C(=O)Nc2nnc(Cc3cccc(Cl)c3)o2)CCC1=O [Compound 409]
> 45 | > 45 | CCn1cc(C(=O)Nc2ccc(Cc3cccc(F)c3)nn2)ccc1=O [Compound 410]
> 45 | > 45 | Cn1nc(C(=O)NCc2ccc(Cc3cccc(F)c3)cn2)ccc1=O [Compound 411]
> 45 | > 45 | CN1N=C(C(=O)Nc2ccc(CN3CCC(C)(C)CC3)cn2)CCC1=O [Compound 412]
> 45 | > 45 | CN1N=C(C(=O)Nc2ncc(C(=O)c3cccc(F)c3)s2)CCC1=O [Compound 413]
25 | > 45 | CCN1N=C(C(=O)Nc2ncc(Cc3cccc(F)c3)s2)CCC1=O [Compound 414]
> 45 | > 45 | O=C(Nc1ccc(Cc2cccc(Cl)c2)cn1)c1ccc2nccn2n1 [Compound 415]
> 45 | > 45 | CN1N=C(C(=O)Nc2ncc(Oc3ccccc3Cl)s2)CCC1=O [Compound 416]
> 45 | > 45 | O=C(Nc1ccc(Cc2cccc(F)c2)cn1)c1ccc(F)c(Cl)n1 [Compound 417]
> 45 | > 45 | CN1N=C(C(=O)Nc2ncc(C(C)(O)c3cccc(F)c3)s2)CCC1=O (centres unmarked) [Compound 419]
> 45 | > 45 | O=C(Nc1ncc(Cc2cccc(F)c2)s1)C1=NN(CCO)C(=O)CC1 [Compound 420]
> 45 | > 45 | O=C(Nc1ccc(Cc2cccc(F)c2)cn1)c1ccc(=O)n(C2CCC2)n1 [Compound 421]
> 45 | > 45 | CN1N=C(C(=O)Nc2nc(Cc3ccc4ccccc4n3)cs2)CCC1=O [Compound 422]
> 45 | > 45 | CS(=O)(=O)c1ccc(C(=O)Nc2ccc(Cc3cccc(F)c3)cn2)cc1 [Compound 423]
> 45 | > 45 | COC(C)(c1cccc(F)c1)c1cnc(NC(=O)C2=NN(C)C(=O)CC2)s1 (centres unmarked) [Compound 424]
> 45 | > 45 | Cn1nc(C(=O)Nc2cncc(Cc3cccc(Cl)c3)c2)ccc1=O [Compound 426]
> 45 | > 45 | Cn1cc(C(=O)Nc2ccc(OCc3cc(F)cc(C#N)c3)cn2)ccc1=O [Compound 427]

Compound | IC50 (human SCD1) [µM] | IC50 (human SCD5) [µM]
Cn1ccc(C(=O)Nc2ccc(Cc3ccc(F)c(F)c3)cn2)n1 [Compound 371] | 0.12 | 0.01
